Key:
[1] = test system: Male ICR mice; assay: Mouse defecation experiment; type: in vivo; settings: mean±standard error
Description: Mouse Defecation Experiment
Male ICR mice (6-7 weeks old) were used after an acclimation period for about 1 week. A test drug (1 mg/kg or 3 mg/kg) was suspended in 0.5% methylcellulose solution and orally administered at a volume of 10 mL/kg, and the number of feces 2 hr later was counted. Only 0.5% methylcellulose was administered to a solvent administration group.

[2] = Mouse PK test (cassette dosing); type: in vivo; settings: male, ICR; for Tmax: mouse plasma, time to reach maximum plasma concentration, oral 1 mg/kg; for MRT / clearance: plasma, mouse, intravenous 0.1 mg/kg; for MRT: mean residence time; for clearance: total clearance, read-out: CL total (converted)
Description: As the mouse, 8-week-old male ICR mice (Japan SLC, Inc.) were used. They were fed on a solid commercially available diet (CE-2, CLEA Japan, Inc.) and allowed to freely ingest tap water as the drinking water. An intravenous administration solution for the mice was prepared by weighing a test compound, dissolving same in dimethylacetamide (DMA) (Wako Pure Chemical Industries, Ltd.), adding the same volume of 1,3-butanediol (Wako Pure Chemical Industries, Ltd.) and mixing by stirring to give a DMA:1,3-butanediol (1:1, v/v) solution. An oral administration solution was prepared by weighing a test compound, pulverizing same in an agate mortar, and gradually adding 0.5 w/v % aqueous methylcellulose solution to give a suspension. For intravenous administration, the solution was administered into femoral vein of the mice at 0.1 mg/mL/kg (salt converted to free form). For oral administration, the suspension was administered to the mice at 1 mg/5 mL/kg (salt converted to free form). The cassette dosing method was used for the both administration routes, and the test compound was administered in the following manner.
In the case of intravenous administration, blood samples were collected from the tail vein at 5, 10, 15, 30 min, 1, 2, 4, 8 hr after administration, an anticoagulation treatment with heparin sodium (Shimizu Pharmaceutical Co., Ltd.) was performed, and plasma was collected after centrifugation and subjected to the measurement of drug concentration. In the case of oral administration, blood samples were collected from the tail vein at 15, 30 min, 1, 2, 4, 8 hr after administration, an anticoagulation treatment with heparin sodium was performed, and plasma was collected after centrifugation and subjected to the measurement of drug concentration.
All drug concentrations were measured by LC-MS/MS analysis. For a pharmacokinetics test, the plasma (5 μL) was placed in a tube, acetonitrile (115 μL) containing internal standard solution was added and they were mixed on a vortex mixer. Thereafter, the mixture was centrifuged (5000 rpm, 5 min, 4° C.). The supernatant (100 μL) after centrifugation was added to 10 mmol/L ammonium formate (100 μL) added earlier and mixed therewith. This sample was injected to LC/MS/MS. […] MS/MS used was AB Sciex TQ5500-MPX (Applied Biosystems).
Tmax: time to reach maximum plasma concentration
iv: intravenous administration
CL total: total clearance

[3] = target: T1, MDR1 (Homo sapiens, UniProt P08183); assay: MDR1 membrane permeability test; type: in vitro ADME; settings: pH 7.4, efflux ratio (ER), Papp B to A / A to B, human MDR1-expressing LLC-PK1 cells, read-out: MDR1 substrate screening 1 μM (MDRSUB1)/Ratio (NUMBER)
T1 construct: expressed in transfected cells
T1 sequence (P08183 whole entry): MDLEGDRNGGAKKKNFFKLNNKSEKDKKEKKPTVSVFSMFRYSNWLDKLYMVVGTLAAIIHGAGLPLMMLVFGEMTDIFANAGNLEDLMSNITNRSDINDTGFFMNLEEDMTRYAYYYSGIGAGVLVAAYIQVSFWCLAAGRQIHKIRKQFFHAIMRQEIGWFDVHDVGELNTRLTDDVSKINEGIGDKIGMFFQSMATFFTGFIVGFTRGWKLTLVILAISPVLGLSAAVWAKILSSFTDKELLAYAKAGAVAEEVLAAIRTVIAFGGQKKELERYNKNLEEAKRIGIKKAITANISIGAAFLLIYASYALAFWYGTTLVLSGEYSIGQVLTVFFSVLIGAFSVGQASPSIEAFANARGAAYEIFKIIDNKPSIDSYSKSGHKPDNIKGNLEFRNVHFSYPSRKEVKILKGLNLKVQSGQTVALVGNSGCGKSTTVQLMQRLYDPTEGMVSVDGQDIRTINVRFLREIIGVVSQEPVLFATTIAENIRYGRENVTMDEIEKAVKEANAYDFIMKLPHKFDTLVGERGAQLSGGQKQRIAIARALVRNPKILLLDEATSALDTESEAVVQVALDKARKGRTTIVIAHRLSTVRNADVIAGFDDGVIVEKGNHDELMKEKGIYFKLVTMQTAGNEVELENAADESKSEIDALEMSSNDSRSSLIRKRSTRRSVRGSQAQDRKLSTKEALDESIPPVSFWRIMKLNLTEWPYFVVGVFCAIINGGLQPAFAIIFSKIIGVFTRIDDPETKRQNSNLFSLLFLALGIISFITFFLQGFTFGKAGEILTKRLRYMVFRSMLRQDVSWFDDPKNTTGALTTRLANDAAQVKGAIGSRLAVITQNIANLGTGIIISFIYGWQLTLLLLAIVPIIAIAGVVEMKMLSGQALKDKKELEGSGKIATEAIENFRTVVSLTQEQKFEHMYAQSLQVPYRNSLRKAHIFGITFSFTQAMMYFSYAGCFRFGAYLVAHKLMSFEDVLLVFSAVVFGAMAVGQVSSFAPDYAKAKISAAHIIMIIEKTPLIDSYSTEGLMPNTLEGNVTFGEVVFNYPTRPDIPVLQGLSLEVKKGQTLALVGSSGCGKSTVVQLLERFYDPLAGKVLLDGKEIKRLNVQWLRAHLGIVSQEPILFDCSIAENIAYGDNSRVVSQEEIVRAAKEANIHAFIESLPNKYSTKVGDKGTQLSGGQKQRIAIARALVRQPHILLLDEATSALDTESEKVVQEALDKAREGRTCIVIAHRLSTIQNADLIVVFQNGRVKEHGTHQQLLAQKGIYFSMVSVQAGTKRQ
Method in brief: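 Human MDR1-expressing LLC-PK1 cells were grown for 3 days on 96-well polyethylene terephthalate Transwell supports (0.4 μm pores, 0.143 cm^2) seeded at 3.45×10^4 cells/well. After a 30 min preincubation in M199 medium with 10 mmol/L HEPES and 1% BSA (pH 7.4), drug was added apically or basolaterally. After 1 hr at 37° C, the opposite side was sampled and analyzed by LC-MS/MS. Efflux ratio was calculated from Papp B to A versus A to B.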

Compound	Tmax [2] [h]	MRT [2] [h]	clearance [2] [mL/min/kg]	efflux ratio at 1 hr, 1 μM [3]	number of feces 2 hr later ([1]; 1 mg/kg orally)	number of feces 2 hr later ([1]; 3 mg/kg orally)
CNC(=O)c1ccc(Cc2cc3c(=O)n([C@H]4CCOC[C@@H]4O)cnc3c(C)c2C)cc1F [Example 3, 1,5-anhydro-2,3-dideoxy-3-(6-(3-fluoro-4-(methylcarbamoyl)benzyl)-7,8-dimethyl-4-oxoquinazolin-3(4H)-yl)-L-threo-pentitol]	1.7	1.9	10.2	6	14.0 ± 1.0	–
CNC(=O)c1ccc(Cc2cc3c(=O)n([C@H]4CCOC[C@@H]4O)nnc3c(Cl)c2C)cc1F [Example 19, 1,5-anhydro-3-(8-chloro-6-(3-fluoro-4-(methylcarbamoyl)benzyl)-7-methyl-4-oxo-1,2,3-benzotriazin-3(4H)-yl)-2,3-dideoxy-L-threo-pentitol]	1.7	2.5	4.57	4.6	12.6 ± 1.2	–
COCCNC(=O)c1ccc(Cc2cc3c(=O)n([C@H]4CCOC[C@@H]4O)cnc3c(C)c2C)cc1F [Example 66, 1,5-anhydro-2,3-dideoxy-3-(6-(3-fluoro-4-((2-methoxyethyl)carbamoyl)benzyl)-7,8-dimethyl-4-oxoquinazolin-3(4H)-yl)-L-threo-pentitol]	0.7	0.8	26.6	7	9.3 ± 1.2	–
Cc1c(Cc2ccc(C(=O)NC[C@H]3CCCO3)c(F)c2)cc2c(=O)n([C@H]3CCOC[C@@H]3O)cnc2c1C [Example 81, 1,5-anhydro-2,3-dideoxy-3-(6-(3-fluoro-4-(((2R)-tetrahydrofuran-2-ylmethyl)carbamoyl)benzyl)-7,8-dimethyl-4-oxoquinazolin-3(4H)-yl)-L-threo-pentitol]	0.5	0.5	72.2	8.6	–	–

Second part, led by results:

Tmax [2] [h]	MRT [2] [h]	clearance [2] [mL/min/kg]	efflux ratio at 1 hr, 1 μM [3]	Compound	number of feces 2 hr later ([1]; 1 mg/kg orally)	number of feces 2 hr later ([1]; 3 mg/kg orally)
1	1	10.9	18	Cc1c(Cc2ccc(-c3cn(C)nn3)nc2)cc2c(=O)n([C@H]3CCOC[C@@H]3O)cnc2c1C [Example 2, 1,5-anhydro-2,3-dideoxy-3-(7,8-dimethyl-6-((6-(1-methyl-1H-1,2,3-triazol-4-yl)pyridin-3-yl)methyl)-4-oxoquinazolin-3(4H)-yl)-L-threo-pentitol]	5.0 ± 0.7	11.3 ± 0.6
0.7	1.2	7.45	15	Cc1nn(C)cc1-c1ccc(Cc2cc3c(=O)n([C@H]4CCOC[C@@H]4O)cnc3c(C)c2C)cn1 [Example 5, 1,5-anhydro-2,3-dideoxy-3-(6-((6-(1,3-dimethyl-1H-pyrazol-4-yl)pyridin-3-yl)methyl)-7,8-dimethyl-4-oxoquinazolin-3(4H)-yl)-L-threo-pentitol]	5.6 ± 1.0	8.4 ± 2.6
1.7	1.4	4.55	11	Cc1c(Cc2ccc(-c3cnn(C)c3)nc2)cc2c(=O)n([C@H]3CCOC[C@@H]3O)cnc2c1C [Example 6, 1,5-anhydro-2,3-dideoxy-3-(7,8-dimethyl-6-((6-(1-methyl-1H-pyrazol-4-yl)pyridin-3-yl)methyl)-4-oxoquinazolin-3(4H)-yl)-L-threo-pentitol]	7.2 ± 1.8	8.2 ± 1.0

Reference: patent publication US11560372B2, “Heterocyclic compounds useful as modulators of acetylcholine receptors” (TAKEDA PHARMACEUTICAL COMPANY LIMITED, priority 2017, dated 2023)
